Active and inactive are the calls of the source. No rule for the calls is given here.
System: CCRIS mutagenicity, Ames/micronucleus/aberration tests
Experiment: CCRIS mutagenicity studies
[1] = Test System: AMES SALMONELLA TYPHIMURIUM, Strain/Indicator: TA98, Metabolic Activation: NONE, Method: PREINCUBATION
[2] = Test System: AMES SALMONELLA TYPHIMURIUM, Strain/Indicator: TA100, Metabolic Activation: NONE, Method: PREINCUBATION
[3] = Test System: AMES SALMONELLA TYPHIMURIUM, Strain/Indicator: TA1535, Metabolic Activation: NONE, Method: PREINCUBATION
[4] = Test System: AMES SALMONELLA TYPHIMURIUM, Strain/Indicator: TA1537, Metabolic Activation: NONE, Method: PREINCUBATION
[5] = Test System: AMES SALMONELLA TYPHIMURIUM, Strain/Indicator: TA98, Metabolic Activation: RAT, LIVER, S-9, AROCLOR 1254, Method: STANDARD PLATE
[6] = Test System: AMES SALMONELLA TYPHIMURIUM, Strain/Indicator: TA100, Metabolic Activation: NONE, Method: STANDARD PLATE
[7] = Test System: AMES SALMONELLA TYPHIMURIUM, Strain/Indicator: TA100, Metabolic Activation: RAT, LIVER, S-9, AROCLOR 1254, Method: STANDARD PLATE

Measured: mutagenic call

C=CC(=O)NC(C)(C)CC(C)=O
inactive: Test System: AMES SALMONELLA TYPHIMURIUM, Strain/Indicator: TA98, Metabolic Activation: HAMSTER, LIVER, S-9, AROCLOR 1254, Method: PREINCUBATION inactive; negative | [1] inactive; negative | Test System: AMES SALMONELLA TYPHIMURIUM, Strain/Indicator: TA98, Metabolic Activation: RAT, LIVER, S-9, AROCLOR 1254, Method: PREINCUBATION inactive; negative | Test System: AMES SALMONELLA TYPHIMURIUM, Strain/Indicator: TA100, Metabolic Activation: HAMSTER, LIVER, S-9, AROCLOR 1254, Method: PREINCUBATION inactive; negative | [2] inactive; negative | Test System: AMES SALMONELLA TYPHIMURIUM, Strain/Indicator: TA100, Metabolic Activation: RAT, LIVER, S-9, AROCLOR 1254, Method: PREINCUBATION inactive; negative | Test System: AMES SALMONELLA TYPHIMURIUM, Strain/Indicator: TA1535, Metabolic Activation: HAMSTER, LIVER, S-9, AROCLOR 1254, Method: PREINCUBATION inactive; negative | [3] inactive; negative | Test System: AMES SALMONELLA TYPHIMURIUM, Strain/Indicator: TA1535, Metabolic Activation: RAT, LIVER, S-9, AROCLOR 1254, Method: PREINCUBATION inactive; negative | Test System: AMES SALMONELLA TYPHIMURIUM, Strain/Indicator: TA1537, Metabolic Activation: HAMSTER, LIVER, S-9, AROCLOR 1254, Method: PREINCUBATION inactive; negative | [4] inactive; negative | Test System: AMES SALMONELLA TYPHIMURIUM, Strain/Indicator: TA1537, Metabolic Activation: RAT, LIVER, S-9, AROCLOR 1254, Method: PREINCUBATION inactive; negative

Brc1cc(-c2cc(Br)c(Br)c(Br)c2)cc(Br)c1Br
inactive: Test System: CHINESE HAMSTER V-79, Strain/Indicator: V-79 (HGPRT)/6-THIOGUANINE, Metabolic Activation: NONE inactive; negative

CCN(CC)[N+](=O)[O-]
inactive: Test System: E. COLI, Strain/Indicator: WP2 (HCR-), Metabolic Activation: RAT, LIVER, MICROSOMES, PHENOBARBITAL inactive; negative

CCCCCCCCCC/C=C/C1CC(=O)OC1=O (configuration not stated)
inactive: Test System: AMES SALMONELLA TYPHIMURIUM, Strain/Indicator: TA98, Metabolic Activation: HAMSTER, LIVER, S-9, AROCLOR 1254, Method: STANDARD PLATE inactive; negative | Test System: AMES SALMONELLA TYPHIMURIUM, Strain/Indicator: TA98, Metabolic Activation: NONE, Method: STANDARD PLATE inactive; negative | [5] inactive; negative | Test System: AMES SALMONELLA TYPHIMURIUM, Strain/Indicator: TA100, Metabolic Activation: HAMSTER, LIVER, S-9, AROCLOR 1254, Method: STANDARD PLATE inactive; negative | [6] inactive; negative | [7] inactive; negative | Test System: AMES SALMONELLA TYPHIMURIUM, Strain/Indicator: TA1535, Metabolic Activation: HAMSTER, LIVER, S-9, AROCLOR 1254, Method: STANDARD PLATE inactive; negative | Test System: AMES SALMONELLA TYPHIMURIUM, Strain/Indicator: TA1535, Metabolic Activation: NONE, Method: STANDARD PLATE inactive; negative | Test System: AMES SALMONELLA TYPHIMURIUM, Strain/Indicator: TA1535, Metabolic Activation: RAT, LIVER, S-9, AROCLOR 1254, Method: STANDARD PLATE inactive; negative | Test System: AMES SALMONELLA TYPHIMURIUM, Strain/Indicator: TA1537, Metabolic Activation: HAMSTER, LIVER, S-9, AROCLOR 1254, Method: STANDARD PLATE inactive; negative | Test System: AMES SALMONELLA TYPHIMURIUM, Strain/Indicator: TA1537, Metabolic Activation: NONE, Method: STANDARD PLATE inactive; negative | Test System: AMES SALMONELLA TYPHIMURIUM, Strain/Indicator: TA1537, Metabolic Activation: RAT, LIVER, S-9, AROCLOR 1254, Method: STANDARD PLATE inactive; negative | Test System: AMES SALMONELLA TYPHIMURIUM, Strain/Indicator: TA1538, Metabolic Activation: HAMSTER, LIVER, S-9, AROCLOR 1254, Method: STANDARD PLATE inactive; negative | Test System: AMES SALMONELLA TYPHIMURIUM, Strain/Indicator: TA1538, Metabolic Activation: NONE, Method: STANDARD PLATE inactive; negative | Test System: AMES SALMONELLA TYPHIMURIUM, Strain/Indicator: TA1538, Metabolic Activation: RAT, LIVER, S-9, AROCLOR 1254, Method: STANDARD PLATE inactive; negative | Test System: MOUSE LYMPHOMA, Strain/Indicator: L5178Y (TK+/TK-), Metabolic Activation: NONE, Method: SUSPENSION/PLATE inactive; negative. reevaluation of results: inconclusive | Test System: MOUSE LYMPHOMA, Strain/Indicator: L5178Y (TK+/TK-), Metabolic Activation: RAT, LIVER, S-9, AROCLOR 1254, Method: SUSPENSION/PLATE inactive; negative. reevaluation of results: negative

CCCCC(CC)COP(=O)(Oc1ccccc1)Oc1ccccc1 (configuration not stated)
inactive: Test System: AMES SALMONELLA TYPHIMURIUM, Strain/Indicator: TA98, Metabolic Activation: HAMSTER, LIVER, S-9, AROCLOR 1254 (10%), Method: PREINCUBATION inactive; negative | [1] inactive; negative | Test System: AMES SALMONELLA TYPHIMURIUM, Strain/Indicator: TA98, Metabolic Activation: RAT, LIVER, S-9, AROCLOR 1254 (10%), Method: PREINCUBATION inactive; negative | Test System: AMES SALMONELLA TYPHIMURIUM, Strain/Indicator: TA100, Metabolic Activation: HAMSTER, LIVER, S-9, AROCLOR 1254 (10%), Method: PREINCUBATION inactive; negative | [2] inactive; negative | Test System: AMES SALMONELLA TYPHIMURIUM, Strain/Indicator: TA100, Metabolic Activation: RAT, LIVER, S-9, AROCLOR 1254 (10%), Method: PREINCUBATION inactive; negative | Test System: AMES SALMONELLA TYPHIMURIUM, Strain/Indicator: TA1535, Metabolic Activation: HAMSTER, LIVER, S-9, AROCLOR 1254 (10%), Method: PREINCUBATION inactive; negative | [3] inactive; negative | Test System: AMES SALMONELLA TYPHIMURIUM, Strain/Indicator: TA1535, Metabolic Activation: RAT, LIVER, S-9, AROCLOR 1254 (10%), Method: PREINCUBATION inactive; negative | Test System: AMES SALMONELLA TYPHIMURIUM, Strain/Indicator: TA1537, Metabolic Activation: HAMSTER, LIVER, S-9, AROCLOR 1254 (10%), Method: PREINCUBATION inactive; negative | [4] inactive; negative | Test System: AMES SALMONELLA TYPHIMURIUM, Strain/Indicator: TA1537, Metabolic Activation: RAT, LIVER, S-9, AROCLOR 1254 (10%), Method: PREINCUBATION inactive; negative

Cc1cc2ccccc2c2ccc3ccccc3c12
active: End Point: Chinese hamster lung fibroblasts, Strain/Indicator: V79MZ/HPRT/6-Thioguanidine, Metabolic Activation: Stably transfected human CYP1A1 (hCYP1A1), Method: Preincubation active; positive. highly potent. protection against mutagenicity by human glutathione s- | End Point: Chinese hamster lung fibroblasts, Strain/Indicator: V79MZ/HPRT/6-Thioguanidine, Metabolic Activation: Stably transfected human CYP1B1 (hCYP1B1), Method: Preincubation active; positive. highly potent. protection against mutagenicity by human glutathione s- | [5] active; positive | Test System: AMES SALMONELLA TYPHIMURIUM, Strain/Indicator: TA98, Metabolic Activation: RAT, LIVER, S-9, Method: PREINCUBATION active; positive | Test System: AMES SALMONELLA TYPHIMURIUM, Strain/Indicator: TA100, Metabolic Activation: RAT, LIVER, MICROSOMES, AROCLOR 1254, Method: STANDARD PLATE active; positive | [7] active; positive | Test System: AMES SALMONELLA TYPHIMURIUM, Strain/Indicator: TA100, Metabolic Activation: RAT, LIVER, S-9, Method: PREINCUBATION active; positive
inactive: [1] inactive; negative | [2] inactive; negative | [6] inactive; negative | Test System: AMES SALMONELLA TYPHIMURIUM, Strain/Indicator: TA100, Metabolic Activation: RAT, LIVER, MICROSOMES, 5-METHYLCHRYSENE, Method: STANDARD PLATE inactive; negative | Test System: AMES SALMONELLA TYPHIMURIUM, Strain/Indicator: TA100, Metabolic Activation: RAT, LIVER, MICROSOMES, Method: STANDARD PLATE inactive; negative

OCc1c2ccccc2c(CO)c2c1ccc1ccccc12
inactive: Test System: AMES SALMONELLA TYPHIMURIUM, Strain/Indicator: TA98, Metabolic Activation: RAT, LIVER, S-9, NADPH GENERATING SYSTEM, Method: PREINCUBATION inactive; negative
active: Test System: AMES SALMONELLA TYPHIMURIUM, Strain/Indicator: TA98, Metabolic Activation: RAT, LIVER, S-105, PAPS GENERATING SYSTEM, Method: PREINCUBATION active; positive

Reference: PubChem BioAssay AID1259407 (Chemical Carcinogenesis Research Information System (CCRIS), 2018)
